We go through 26 molecules from US20170334899A1, “AMINO-SUBSTITUTED ISOTHIAZOLES” (Bayer Pharma Aktiengesellschaft, priority 2014, published 2017).

The target of the assay is T1, CDK2/CycE (Homo sapiens, UniProt P24941).
T1 construct: GST; purchased ProQinase GmbH (Freiburg, Germany); host or cells: insect cells (Sf9)
Nature of the assay: CDK2/CycE kinase assay (TR-FRET). Format: biochemical. As to conditions: avg, read-out: CDK2 avg (IC50 [mol/l]). In a few lines: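 GST-tagged human CDK2 and CycE from Sf9 cells, preincubated 15 min with compound, then 25 min at 22° C. with 10 μM ATP and 0.75 μM biotinylated Rb-derived peptide (final). Phospho-substrate read by TR-FRET (anti-pRB pSer807/pSer811, Eu anti-mouse IgG, streptavidin-XL665), 665/620 nm ratio, normalised to no-inhibitor and no-enzyme controls.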
On the technique in general: In TR-FRET formats the signal depends on donor and acceptor labels being close together.

SMILES strings stand for the structures. pIC50: −log10 of the molar value.

For `Cc1nsc(Nc2cncc(C(F)(F)F)n2)c1C(=O)Nc1ccc(F)c(OC2CCN(CCC(F)(F)F)CC2)c1` [Example 343, N-(4-fluoro-3-{[1-(3,3,3-trifluoropropyl)piperidin-4-yl]oxy}phenyl)-3-methyl-5-{[6-(trifluoromethyl)pyrazin-2-yl]amino}-1,2-thiazole-4-carboxamide], the pIC50 is at most 4.70. In the case of `Cc1nsc(Nc2cnc(C(F)(F)F)cn2)c1C(=O)Nc1ccc(N2CCN(CC(F)(F)F)CC2)cn1` [Example 373, 3-methyl-N-{5-[4-(2,2,2-trifluoroethyl)piperazin-1-yl]pyridin-2-yl}-5-{[5-(trifluoromethyl)pyrazin-2-yl]amino}-1,2-thiazole-4-carboxamide], the pIC50 is under 4.70. As for `Cc1nsc(Nc2cnc(C(F)(F)F)cn2)c1C(=O)Nc1ccc(OC2CCCN(CCC(F)(F)F)C2)nc1` (centres unmarked) [Example 332, 3-methyl-5-{[5-(trifluoromethyl)pyrazin-2-yl]amino}-N-(6-{[1-(3,3,3-trifluoropropyl)piperidin-3-yl]oxy}pyridin-3-yl)-1,2-thiazole-4-carboxamide], the figure is at most 4.70. As for `Cc1nsc(Nc2cnc(C(F)(F)F)cn2)c1C(=O)Nc1ccc(O[C@H]2CCN(CCC(F)(F)F)C[C@@H]2F)nc1` [Example 364, N-(6-{[(3S,4S)-3-fluoro-1-(3,3,3-trifluoropropyl)piperidin-4-yl]oxy}pyridin-3-yl)-3-methyl-5-{[5-(trifluoromethyl)pyrazin-2-yl]amino}-1,2-thiazole-4-carboxamide], the figure is under 4.70; as for `Cc1nsc(Nc2cnc3ccccc3n2)c1C(=O)Nc1ccc(OC2CCCN(C(=O)OC(C)(C)C)C2)nc1` (centres unmarked) [Example 31, tert-Butyl 3-{[5-({[3-methyl-5-(quinoxalin-2-ylamino)-1,2-thiazol-4-yl]carbonyl}-amino)pyridin-2-yl]oxy}piperidine-1-carboxylate], at most 4.70; as for `Cc1nsc(Nc2cnc(C(F)(F)F)cn2)c1C(=O)Nc1ccc(OC[C@@H]2CCCN(CCC(F)(F)F)C2)nc1` [Example 377, 3-methyl-5-{[5-(trifluoromethyl)pyrazin-2-yl]amino}-N-(6-{[(3R)-1-(3,3,3-trifluoropropyl)piperidin-3-yl]methoxy}pyridin-3-yl)-1,2-thiazole-4-carboxamide], under 4.70. Consider `Cc1nsc(Nc2cnc(C(F)(F)F)cn2)c1C(=O)Nc1ccc(O[C@@H]2CCCN(CCC(F)(F)F)C2)nc1` [Example 387, 3-methyl-5-{[5-(trifluoromethyl)pyrazin-2-yl]amino}-N-(6-{[(3R)-1-(3,3,3-trifluoropropyl)piperidin-3-yl]oxy}pyridin-3-yl)-1,2-thiazole-4-carboxamide], for which the pIC50 is under 4.70. As for `Cc1nsc(Nc2cnc(C(F)(F)F)cn2)c1C(=O)Nc1ccc(OC2CCCN(CC(F)(F)F)C2)nc1` (centres unmarked) [Example 331, 3-methyl-N-(6-{[1-(2,2,2-trifluoroethyl)piperidin-3-yl]oxy}pyridin-3-yl)-5-{[5-(trifluoromethyl)pyrazin-2-yl]amino}-1,2-thiazole-4-carboxamide], the figure is at most 4.70.

Take `Cc1nsc(Nc2cnc(C(F)(F)F)cn2)c1C(=O)Nc1ccc(F)c(OC[C@H]2CCN(CC(F)F)C2)c1` [Example 397, N-(3-{[(3S)-1-(2,2-difluoroethyl)pyrrolidin-3-yl]methoxy}-4-fluorophenyl)-3-methyl-5-{[5-(trifluoromethyl)pyrazin-2-yl]amino}-1,2-thiazole-4-carboxamide]: the pIC50 is under 4.70. For `Cc1nsc(Nc2cnc(C(F)(F)F)cn2)c1C(=O)Nc1ccc(O[C@@H]2CCN(CC(F)F)C2)nc1` [Example 379, N-(6-{[(3R)-1-(2,2-difluoroethyl)pyrrolidin-3-yl]oxy}pyridin-3-yl)-3-methyl-5-{[5-(trifluoromethyl)pyrazin-2-yl]amino}-1,2-thiazole-4-carboxamide], the pIC50 was under 4.70. For `Cc1nsc(Nc2cnc(C(F)(F)F)cn2)c1C(=O)Nc1ccc(OCC2CCN(CC(F)(F)F)CC2)nc1` [Example 346, 3-methyl-N-(6-{[1-(2,2,2-trifluoroethyl)piperidin-4-yl]methoxy}pyridin-3-yl)-5-{[5-(trifluoromethyl)pyrazin-2-yl]amino}-1,2-thiazole-4-carboxamide] the value was at most 4.70. As for `CCCN1CC[C@@H](Oc2ccc(NC(=O)c3c(C)nsc3Nc3cnc(C(F)(F)F)cn3)cn2)[C@H](F)C1` [Example 371, N-(6-{[(3R,4R)-3-fluoro-1-propylpiperidin-4-yl]oxy}pyridin-3-yl)-3-methyl-5-{[5-(trifluoromethyl)pyrazin-2-yl]amino}-1,2-thiazole-4-carboxamide], the figure is under 4.70; as for `Cc1nsc(Nc2cnc(C(F)(F)F)cn2)c1C(=O)Nc1ccc(F)c(OCC2CCCN(CCF)C2)c1` (centres unmarked) [Example 336, N-(4-fluoro-3-{[1-(2-fluoroethyl)piperidin-3-yl]methoxy}phenyl)-3-methyl-5-{[5-(trifluoromethyl)pyrazin-2-yl]amino}-1,2-thiazole-4-carboxamide], at most 4.70; as for `Cc1nsc(Nc2cnc(C(F)(F)F)cn2)c1C(=O)Nc1ccc(O[C@H]2CCCN(CC(F)F)C2)nc1` [Example 388, N-(6-{[(3S)-1-(2,2-difluoroethyl)piperidin-3-yl]oxy}pyridin-3-yl)-3-methyl-5-{[5-(trifluoromethyl)pyrazin-2-yl]amino}-1,2-thiazole-4-carboxamide], under 4.70.

As to `Cc1nsc(Nc2ccc(C#N)cn2)c1C(=O)Nc1ccc(OC2CCN(CCF)CC2)nc1` [Example 29, 5-[(5-Cyanopyridin-2-yl)amino]-N-(6-{[1-(2-fluoroethyl)piperidin-4-yl]oxy}pyridin-3-yl)-3-methyl-1,2-thiazole-4-carboxamide], the pIC50 was at most 4.70. As for `Cc1nsc(Nc2cnc(C(F)(F)F)cn2)c1C(=O)Nc1ccc(O[C@H]2CCN(CC(F)(F)F)C[C@@H]2F)nc1` [Example 363, N-(6-{[(3S,4S)-3-fluoro-1-(2,2,2-trifluoroethyl)piperidin-4-yl]oxy}pyridin-3-yl)-3-methyl-5-{[5-(trifluoromethyl)pyrazin-2-yl]amino}-1,2-thiazole-4-carboxamide], the figure is under 4.70; as for `Cc1nsc(Nc2cnc(C(F)(F)F)cn2)c1C(=O)Nc1ccc(F)c(OC[C@H]2CCN(CC(F)(F)F)C2)c1` [Example 398, N-(4-fluoro-3-{[(3S)-1-(2,2,2-trifluoroethyl)pyrrolidin-3-yl]methoxy}phenyl)-3-methyl-5-{[5-(trifluoromethyl)pyrazin-2-yl]amino}-1,2-thiazole-4-carboxamide], under 4.70; as for `Cc1nsc(Nc2cnc(C(F)(F)F)cn2)c1C(=O)Nc1ccc(O[C@@H]2CCN(CCC(F)(F)F)C[C@H]2F)nc1` [Example 368, N-(6-{[(3R,4R)-3-fluoro-1-(3,3,3-trifluoropropyl)piperidin-4-yl]oxy}pyridin-3-yl)-3-methyl-5-{[5-(trifluoromethyl)pyrazin-2-yl]amino}-1,2-thiazole-4-carboxamide], under 4.70. For `Cc1nsc(Nc2cnc(C(F)(F)F)cn2)c1C(=O)Nc1ccc(O[C@@H]2CCCN(CC(F)(F)F)C2)nc1` [Example 386, 3-methyl-N-(6-{[(3R)-1-(2,2,2-trifluoroethyl)piperidin-3-yl]oxy}pyridin-3-yl)-5-{[5-(trifluoromethyl)pyrazin-2-yl]amino}-1,2-thiazole-4-carboxamide] the value was under 4.70. Regarding `Cc1nsc(Nc2cnc(C(F)(F)F)cn2)c1C(=O)Nc1ccc(OC2CCCN(C(CF)CF)C2)nc1` (centres unmarked) [Example 333, N-(6-{[1-(1,3-difluoropropan-2-yl)piperidin-3-yl]oxy}pyridin-3-yl)-3-methyl-5-{[5-(trifluoromethyl)pyrazin-2-yl]amino}-1,2-thiazole-4-carboxamide], the pIC50 was at most 4.70. For `Cc1nsc(Nc2cnc(C(F)(F)F)cn2)c1C(=O)Nc1ccc(N2CCN(CCC(F)(F)F)CC2)cn1` [Example 374, 3-methyl-5-{[5-(trifluoromethyl)pyrazin-2-yl]amino}-N-{5-[4-(3,3,3-trifluoropropyl)piperazin-1-yl]pyridin-2-yl}-1,2-thiazole-4-carboxamide] the value was under 4.70; for `CCCCN1CCC(COc2ccc(NC(=O)c3c(C)nsc3Nc3cnc(C(F)(F)F)cn3)cn2)C(F)(F)C1` (centres unmarked) [Example 396, N-{6-[(1-butyl-3,3-difluoropiperidin-4-yl)methoxy]pyridin-3-yl}-3-methyl-5-{[5-(trifluoromethyl)pyrazin-2-yl]amino}-1,2-thiazole-4-carboxamide], under 4.70. As for `Cc1nsc(Nc2cnc(C(F)(F)F)cn2)c1C(=O)Nc1ccc(OCC2CCN(CC(F)(F)F)CC2(F)F)nc1` (centres unmarked) [Example 392, N-(6-{[3,3-difluoro-1-(2,2,2-trifluoroethyl)piperidin-4-yl]methoxy}pyridin-3-yl)-3-methyl-5-{[5-(trifluoromethyl)pyrazin-2-yl]amino}-1,2-thiazole-4-carboxamide], the figure is under 4.70; as for `Cc1nsc(Nc2cnc(C(F)(F)F)cn2)c1C(=O)Nc1ccc(O[C@@H]2CCCN(CC(F)F)C2)nc1` [Example 385, N-(6-{[(3R)-1-(2,2-difluoroethyl)piperidin-3-yl]oxy}pyridin-3-yl)-3-methyl-5-{[5-(trifluoromethyl)pyrazin-2-yl]amino}-1,2-thiazole-4-carboxamide], under 4.70. As for `Cc1nsc(Nc2cnc(C(F)(F)F)cn2)c1C(=O)Nc1ccc(C2CCN(CC(F)(F)F)CC2)nc1` [Example 358, 3-methyl-N-{6-[1-(2,2,2-trifluoroethyl)piperidin-4-yl]pyridin-3-yl}-5-{[5-(trifluoromethyl)pyrazin-2-yl]amino}-1,2-thiazole-4-carboxamide], the figure is under 4.70. `Cc1nsc(Nc2cnc(C(F)(F)F)cn2)c1C(=O)Nc1ccc(N2CCN(CCC(F)(F)F)CC2)nc1` [Example 361, 3-methyl-5-{[5-(trifluoromethyl)pyrazin-2-yl]amino}-N-{6-[4-(3,3,3-trifluoropropyl)piperazin-1-yl]pyridin-3-yl}-1,2-thiazole-4-carboxamide]: the pIC50 was under 4.70.
